Data published in patent US8623661B2, “Iron chelating agent, method for producing same, method for determining amount of iron ions and method for trapping iron ions” (National University Corporation Asahikawa Medical College, priority 2008, dated 2014).

How the values were obtained:
[1] = molecular target: T1, transferrin iron complex (holo-Transferrin (hTf), human) (Homo sapiens, UniProt P02787); test: Evaluation D: capture of iron ions from transferrin iron complex; assay type: binding
T1 construct: purchased Sigma Corporation T0665-50MG
Experimental: Evaluation was carried out by the following evaluation method D with respect to properties whether iron ions were captured from the transferrin iron complex (transferrin iron complex in which transferrin is chelated to iron ions) by the iron chelating agent according to Examples 1 to 2.
The iron chelating agent according to Example 1 was dissolved in 1×D-PBS (pH 7.2) to prepare an iron chelating agent solution (“Fe-Ser•Na (5 mM)”) having an iron chelating agent concentration of 5 mM, in the same manner as the preparation method of the iron chelating agent in evaluation A of the iron chelating agent.
Further, as described above, the iron chelating agent according to Example 2 was dissolved in 1×D-PBS (pH 7.2) to prepare an iron chelating agent solution (“Fe-His•Na (5 mM)”) having an iron chelating agent concentration of 5 mM.
Further, 800 mM HEDTA solution as the iron chelating agent according to Comparative Example 3 was prepared as described above. 13.76 g of crystals were taken in a 50 mL conical tube, 25 mL of Milli-Q water was added and dissolution performed, and then adjustment to pH 7.0 was performed using concentrated hydrochloric acid (35 to 37%) and the total amount was adjusted to 50 mL using Milli-Q water (HEDTA solution (800 mM)). HEDTA solution (“HEDTA solution (5 mM)”) having a concentration of HEDTA of 5 mM was prepared using 1×D-PBS (pH 7.2).
Further, 800 mM solution (pH 7.0) was prepared by using NTA2Na and NTA3Na as iron chelating agents according to Comparative Example 1 as described above. 9.4 g of NTA2Na was dissolved in Milli-Q water and the total volume was made up to 50 mL (referred to as “NTA2Na solution (800 mM)” in some cases). Meanwhile, 11.0 g of NTA3Na was dissolved in Milli-Q water and the total volume was made up to 50 mL (“NTA3Na solution (800 mM)”). NTA2Na solution (800 mM) (pH 6.3) and NTA3Na solution (800 mM) (pH 11.3) were mixed to produce 800 mM of NTA solution with pH 7.0. NTA solution (“NTA solution (5 mM)”) having a concentration of NTA of 5 mM was prepared by using 1×D-PBS (pH 7.2).
A commercially available transferrin iron complex (holo-Transferrin (hTf), human, Code T0665-50MG, Lot 095K1633, manufactured by Sigma Corporation) was dissolved in 1×D-PBS (pH 7.2) to prepare a transferrin iron complex solution having a concentration of iron ions (iron ions which are transferrin-bound iron) of 50 μM.
50 μl of 50 μM transferrin iron complex solution was taken in a 1.5 mL sample tube, 50 μl of each of iron chelating agent solutions (Fe-Ser•Na (5 mM), Fe-His•Na (5 mM), NTA solution (5 mM), HEDTA solution (5 mM)) was added thereto and left at room temperature under light shielding for 24 hours. 50 μl of various reaction liquids was taken in a centrifugal ultrafiltration unit (trade name “Amicon Ultra-4 Ultracel-30k” UFC8030, manufactured by Millipore Corporation), and 450 μl of 1×D-PBS (pH 7.2) was added thereto, centrifugation was carried out at 3,500 rpm and 20° C. for 30 minutes, and transferrin and each low molecular chelating agents were separated (first time). After centrifugation, the filtrate was discarded. 450 μl of 1×D-PBS (pH 7.2) was added again to the solution (about 50 μl) containing transferrin concentrated in a unit and centrifugation was carried out with the same conditions (second time). A solution containing transferrin concentrated in a unit was recovered after the second time of centrifugation and the absorbance at the wavelength of 466 nm was measured using a spectrophotometer (trade name “Spectrophotometer DU 640”, manufactured by Beckman Coulter).

[2] = system: iron nitrilotriacetate complex (Fe-NTA); test: Evaluation B: chelating ability with iron, absorbance after adding chelating agent to iron nitrilotriacetate complex (Fe-NTA) solution; assay type: binding; settings: for [B] absorbance after addition of iron chelating agent / [B]-[A]: 470 nm; for [B]-[A]: minus blank
Experimental: Evaluation was carried out by the following evaluation method B as to whether the iron chelating agent according to Example 1 had chelating ability with iron.
An iron chelating agent solution (Fe-Ser•Na (50 mM)) having an iron chelating agent concentration of 50 mM was prepared in the same manner as the preparation method of the iron chelating agent solution in evaluation method A of the iron chelating agent.
Ferric chloride-6 hydrate FeCl3.6H2O (MW270.30) crystals were dissolved in Milli-Q water to prepare an 80 mM solution (A liquid). Meanwhile, 160 mM of nitrilotriacetic acid solution (B liquid) was prepared by dissolving crystals of the free salt of NTA (191.14) in 6N hydrochloric acid. 10 mL of A liquid and 10 mL of B liquid was taken in a beaker, and sodium hydrogen carbonate NaHCO3 crystals were added bit by bit while stirring slowly. When gas generation was suppressed and the solution changed to a dark green color, the addition of NaHCO3 was completed. Finally, iron nitrilotriacetate complex solution “Fe-NTA solution (20 mM)” having an iron ion concentration of 20 mM made up to 40 mL was prepared.
Further, 1×D-PBS (pH 7.2) was added to Fe-NTA solution (20 mM) to prepare an iron nitrilotriacetate complex solution having a concentration of iron ions of 2 mM (“Fe-NTA solution (2 mM)”).
Iron nitrilotriacetate complex solution [Fe-NTA solution (20 mM), Fe-NTA solution (2 mM)], and 1×D-PBS (pH 7.2) were mixed at the ratios shown in Tables 3 to 4, the absorbance of the mixture (wavelength 470 nm) was measured by using a spectrophotometer (trade name “NanoDrop ND-1000 Full-spectrum UV/Vis Spectrophotometer”, manufactured by SCRUM Corporation, UV-Vis Module, Measure), and the absorbance of blank ([A] in Tables 3 to 4) was determined. Then, 158 μl of Fe-Ser•Na (50 mM) was added to the mixture, the absorbance (wavelength 470 nm) was measured as described above, and the absorbance after the addition of the iron chelating agent according to Examples ([B] in Tables 3 to 4) was determined.

[3] = Fe-NTA solution (2 mM) 0 μl + 1xD-PBS 160 μl + Fe-Ser•Na (50 mM) 158 μl
[4] = Fe-NTA solution (2 mM) 10 μl + 1xD-PBS 150 μl + Fe-Ser•Na (50 mM) 158 μl
[5] = Fe-NTA solution (2 mM) 20 μl + 1xD-PBS 140 μl + Fe-Ser•Na (50 mM) 158 μl
[6] = Fe-NTA solution (2 mM) 40 μl + 1xD-PBS 120 μl + Fe-Ser•Na (50 mM) 158 μl
[7] = Fe-NTA solution (2 mM) 80 μl + 1xD-PBS 80 μl + Fe-Ser•Na (50 mM) 158 μl
[8] = Fe-NTA solution (2 mM) 160 μl + 1xD-PBS 0 μl + Fe-Ser•Na (50 mM) 158 μl
[9] = Fe-NTA solution (20 mM) 0 μl + 1xD-PBS 160 μl + Fe-Ser•Na (50 mM) 158 μl
[10] = Fe-NTA solution (20 mM) 10 μl + 1xD-PBS 150 μl + Fe-Ser•Na (50 mM) 158 μl
[11] = Fe-NTA solution (20 mM) 20 μl + 1xD-PBS 140 μl + Fe-Ser•Na (50 mM) 158 μl
[12] = Fe-NTA solution (20 mM) 40 μl + 1xD-PBS 120 μl + Fe-Ser•Na (50 mM) 158 μl
[13] = Fe-NTA solution (20 mM) 80 μl + 1xD-PBS 80 μl + Fe-Ser•Na (50 mM) 158 μl
[14] = Fe-NTA solution (20 mM) 160 μl + 1xD-PBS 0 μl + Fe-Ser•Na (50 mM) 158 μl

T1 sequence (P02787 20-698, one chain of several): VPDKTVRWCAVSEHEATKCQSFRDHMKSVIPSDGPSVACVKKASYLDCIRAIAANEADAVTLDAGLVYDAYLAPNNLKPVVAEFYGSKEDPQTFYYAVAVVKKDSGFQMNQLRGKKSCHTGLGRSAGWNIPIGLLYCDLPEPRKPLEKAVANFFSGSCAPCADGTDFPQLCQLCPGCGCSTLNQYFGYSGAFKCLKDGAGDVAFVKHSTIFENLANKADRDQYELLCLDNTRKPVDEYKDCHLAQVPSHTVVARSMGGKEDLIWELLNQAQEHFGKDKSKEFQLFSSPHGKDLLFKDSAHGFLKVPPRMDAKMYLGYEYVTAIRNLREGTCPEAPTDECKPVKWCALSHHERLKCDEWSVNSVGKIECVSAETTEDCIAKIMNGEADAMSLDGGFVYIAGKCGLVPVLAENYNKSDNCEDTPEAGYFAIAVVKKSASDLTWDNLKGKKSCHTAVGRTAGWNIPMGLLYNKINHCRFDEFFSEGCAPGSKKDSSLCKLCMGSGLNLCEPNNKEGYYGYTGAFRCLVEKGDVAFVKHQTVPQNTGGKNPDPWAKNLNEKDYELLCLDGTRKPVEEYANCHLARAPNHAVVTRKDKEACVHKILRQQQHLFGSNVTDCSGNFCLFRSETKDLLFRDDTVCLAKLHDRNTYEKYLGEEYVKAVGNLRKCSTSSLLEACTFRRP

Compound: O=C(O)C(CO)NCc1ccccc1O (stereo not drawn) [Example 1, o-[(1-carboxy-2-hydroxyethyl)-amino-methyl]-phenol]
- capture of iron ions from the transferrin iron complex ([1]; conclusion from Table 5): does not remove iron ions of the transferrin iron complex
- change of absorbance (wavelength 466 nm) after addition to the transferrin iron complex solution ([1]; conclusion from Table 5): increased
- hTf residual ratio (%) ([1]; relative to non-treated holo-Transferrin, 24 hours with 5 mM chelator solution): 104.32%
- Absorbance (466 nm) ([1]; transferrin fraction after 24 hours at room temperature with 5 mM chelator solution and 50 μM transferrin iron complex solution, ultrafiltration): 0.0772
- [B] absorbance after addition of iron chelating agent [2, 3]: 0.011
- [B]-[A] [2, 3]: 0.007
- [B] absorbance after addition of iron chelating agent [2, 4]: 0.017
- [B]-[A] [2, 4]: 0.014
- [B] absorbance after addition of iron chelating agent [2, 5]: 0.026
- [B]-[A] [2, 5]: 0.023
- [B] absorbance after addition of iron chelating agent [2, 6]: 0.041
- [B]-[A] [2, 6]: 0.036
- [B] absorbance after addition of iron chelating agent [2, 7]: 0.075
- [B]-[A] [2, 7]: 0.071
- [B] absorbance after addition of iron chelating agent [2, 8]: 0.135
- [B]-[A] [2, 8]: 0.125
- [B] absorbance after addition of iron chelating agent [2, 9]: 0.008
- [B]-[A] [2, 9]: 0.005
- [B] absorbance after addition of iron chelating agent [2, 10]: 0.081
- [B]-[A] [2, 10]: 0.077
- [B] absorbance after addition of iron chelating agent [2, 11]: 0.163
- [B]-[A] [2, 11]: 0.153
- [B] absorbance after addition of iron chelating agent [2, 12]: 0.322
- [B]-[A] [2, 12]: 0.296
- [B] absorbance after addition of iron chelating agent [2, 13]: 0.731
- [B]-[A] [2, 13]: 0.676
- [B] absorbance after addition of iron chelating agent [2, 14]: 1.244
- [B]-[A] [2, 14]: 1.132
- capture of iron ions from an iron nitrilotriacetate complex ([2]; conclusion from Tables 3 to 4): iron ions can be captured
- chelating ability with iron ([2]; conclusion from Tables 3 to 4): has chelating ability with iron
